Consider 28 compounds from patent publication EP1953147A1, “HETEROCYCLIC COMPOUND AND MEDICINAL APPLICATION THEREOF” (priority 2005, dated 2007).

Bounds are passed on as bounds.

The test system of the test is ΔG/SEAP/HCV E1E2. Description: Effect of test substance on cell infection with HCV pseudotype virus (SEAP reporter assay in HepG2 cells). The class given is cell-based. The conditions noted are these: Hepatitis C virus. On the technique in general: Reporter assays use an easily measured gene product as a stand-in for the process of interest.
As usually defined, the IC50 is the midpoint of a concentration-inhibition curve. Higher therefore signals weaker potency in that assay. As for `COc1cc(OC)cc(-c2nn(-c3cc(N4CC[C@H](O)C4)ccc3S(C)(=O)=O)c(=O)c3c2CCC3)c1` [Example 38, 4-(3,5-dimethoxy-phenyl)-2-[5-((S)-3-hydroxy-pyrrolidin-1-yl)-2-methanesulfonyl-phenyl]-2,5,6,7-tetrahydro-cyclopenta[d]pyridazin-1-one], the half-inhibitory concentration (IC50) is below 100 nM.
For `COc1cc(OC)cc(-c2nn(-c3cc(-c4cccnn4)ccc3C(F)(F)F)c(=O)c3c2CCN3)c1` [Example 17, 4-(3,5-dimethoxy-phenyl)-6-(5-pyridazin-3-yl-2-trifluoromethyl-phenyl)-1,2,3,6-tetrahydro-pyrrolo[2,3-d]pyridazin-7-one] the value was below 100 nM; for `COc1cc(OC)cc(-c2nn(-c3cc(NCc4ccccc4)ccc3C(F)(F)F)c(=O)c3c2CCC3)c1` [Example 135, 2-(5-benzylamino-2-trifluoromethyl-phenyl)-4-(3,5-dimethoxy-phenyl)-2,5,6,7-tetrahydro-cyclopenta[d]pyridazin-1-one], 100 to 10000 nM.
Next, `Cc1cc(-c2cnco2)cc(-c2nn(-c3cc(N4CC[C@H](O)C4)ccc3C(F)(F)F)c(=O)c3c2CCC3)c1` [Example 2, 2-[5-((S)-3-hydroxy-pyrrolidin-1-yl)-2-trifluoromethyl-phenyl]-4-(3-methyl-5-oxazol-5-yl-phenyl)-2,5,6,7-tetrahydro-cyclopenta[d]pyridazin-1-one]: below 100 nM; `COc1cc(OC)cc(-c2nn(-c3cc(NCCN(C)C)ccc3C(F)(F)F)c(=O)c3c2CCC3)c1` [Example 116, 4-(3,5-dimethoxy-phenyl)-2-[5-(2-dimethylamino-ethylamino)-2-trifluoromethyl-phenyl]-2,5,6,7-tetrahydro-cyclopenta[d]pyridazin-1-one]: below 100 nM.
Next, `COc1cc(OC)cc(-c2nn(-c3cc(N4CC[C@H](O)C4)ccc3C(F)(F)F)c(=O)c3c2CCN3CCO)c1` [Example 29, 4-(3,5-dimethoxy-phenyl)-1-(2-hydroxy-ethyl)-6-[5-((S)-3-hydroxy-pyrrolidin-1-yl)-2-trifluoromethylphenyl]-1,2,3,6-tetrahydro-pyrrolo[2,3-d]pyridazin-7-one]: below 100 nM; `COc1cc(OC)cc(-c2nn(-c3cc(N4CC[C@H](O)C4)ccc3C(F)(F)F)c(=O)c3c2CCN3C)c1` [Example 54, 4-(3,5-dimethoxy-phenyl)-6-[5-((S)-3-hydroxy-pyrrolidin-1-yl)-2-trifluoromethyl-phenyl]-1-methyl-1,2,3,6-tetrahydro-pyrrolo[2,3-d]pyridazin-7-one]: below 100 nM; `COc1cc(OC)cc(-c2nn(-c3cc(OC)ccc3C(F)(F)F)c(=O)c3c2CCC3)c1` [Example 69, 4-(3,5-dimethoxy-phenyl)-2-(5-methoxy-2-trifluoromethyl-phenyl)-2,5,6,7-tetrahydro-cyclopenta[d]pyridazin-1-one]: below 100 nM.
In turn, `CNC(=O)CCNc1ccc(C(F)(F)F)c(-n2nc(-c3cc(OC)cc(OC)c3)c3c(c2=O)CCC3)c1` [Example 138, 3-{3-[4-(3,5-dimethoxy-phenyl)-1-oxo-1,5,6,7-tetrahydro-cyclopenta[d]pyridazin-2-yl]-4-trifluoromethyl-phenylamino}-N-methyl-propionamide] showed a concentration for half-maximal inhibition (IC50) below 100 nM.
Consider `COc1cc(OC)cc(-c2nn(-c3cc(N(C)CCCO)ccc3C(F)(F)F)c(=O)c3c2CCC3)c1` [Example 145, 4-(3,5-dimethoxy-phenyl)-2-{5-[(3-hydroxypropyl)-methyl-amino]-2-trifluoromethyl-phenyl}-2,5,6,7-tetrahydro-cyclopenta[d]pyridazin-1-one], for which the IC50 is below 100 nM.
Turning to `COc1cc(C)cc(-c2nn(-c3cc(-c4cccnn4)ccc3C(F)(F)F)c(=O)c3c2CC(C)N3)c1` (stereo not shown) [Example 15, 4-(3-methoxy-5-methyl-phenyl)-2-methyl-6-(5-pyridazin-3-yl-2-trifluoromethyl-phenyl)-1,2,3,6-tetrahydro-pyrrolo[2,3-d]pyridazin-7-one], the IC50 was below 100 nM.
`COc1cccc(-c2nn(-c3cc(N4CC[C@H](O)C4)ccc3C(F)(F)F)c(=O)c3c2CCN3)c1` [Example 43, 6-[5-((S)-3-hydroxy-pyrrolidin-1-yl)-2-trifluoromethyl-phenyl]-4-(3-methoxy-phenyl)-1,2,3,6-tetrahydro-pyrrolo[2,3-d]pyridazin-7-one] came in with an IC50 below 100 nM.
Next, `O=c1c2c(c(-c3ccc(Cl)cc3)nn1-c1cc(N3CC[C@H](O)C3)ccc1C(F)(F)F)CCC2` [Example 78, 4-(4-chloro-phenyl)-2-[5-((S)-3-hydroxy-pyrrolidin-1-yl)-2-trifluoromethyl-phenyl]-2,5,6,7-tetrahydro-cyclopenta[d]pyridazin-1-one]: below 100 nM; `NC(=O)c1ccc(-c2nn(-c3cc(N4CC[C@H](O)C4)ccc3C(F)(F)F)c(=O)c3c2CCC3)cc1` [Example 99, 4-{3-[5-((S)-3-hydroxy-pyrrolidin-1-yl)-2-trifluoromethyl-phenyl]-4-oxo-4,5,6,7-tetrahydro-3H-cyclopenta[d]pyridazin-1-yl}-benzamide]: 100 to 10000 nM.
For `COc1cc(OC)cc(-c2nn(-c3cc(NCC(CO)CO)ccc3C(F)(F)F)c(=O)c3c2CCN3CCO)c1` [Example 1-43, 4-(3,5-dimethoxy-phenyl)-1-(2-hydroxy-ethyl)-6-[5-(3-hydroxy-2-hydroxymethyl-propylamino)-2-trifluoromethyl-phenyl]-1,2,3,6-tetrahydro-pyrrolo[2,3-d]pyridazin-7-one] the value was below 100 nM.
For `COc1cc(OC)cc(-c2nn(-c3cc(N4CCC(O)C4)ccc3C(F)(F)F)c(=O)c3c2CCN3)c1` (stereo not shown) [Example 18, 4-(3,5-dimethoxyphenyl)-6-[5-(3-hydroxy-pyrrolidin-1-yl)-2-trifluoromethyl-phenyl]-1,2,3,6-tetrahydro-pyrrolo[2,3-d]pyridazin-7-one] the value was below 100 nM; for `COc1cc(OC)cc(-c2nn(-c3cc(N4CC[C@H](O)C4)ccc3C(F)(F)F)c(=O)c3c2CCN3CC(=O)N2CCN(C(C)=O)CC2)c1` [Example 41, 1-[2-(4-acetyl-piperazin-1-yl)-2-oxo-ethyl]-4-(3,5-dimethoxy-phenyl)-6-[5-((S)-3-hydroxy-pyrrolidin-1-yl)-2-trifluoromethyl-phenyl]-1,2,3,6-tetrahydro-pyrrolo[2,3-d]pyridazin-7-one], below 100 nM; for `CNC(=O)CNc1ccc(C(F)(F)F)c(-n2nc(-c3cc(OC)cc(OC)c3)c3c(c2=O)CCC3)c1` [Example 124, 2-{3-[4-(3,5-dimethoxy-phenyl)-1-oxo-1,5,6,7-tetrahydro-cyclopenta[d]pyridazin-2-yl]-4-trifluoromethyl-phenylamino}-N-methyl-acetamide], below 100 nM.
The compound `COc1cc(OC)cc(-c2nn(-c3cc(N4CC[C@H](O)C4)ccc3N(C)C)c(=O)c3c2CCC3)c1` [Example 1-6, 4-(3,5-dimethoxy-phenyl)-2-[2-dimethylamino-5-((S)-3-hydroxy-pyrrolidin-1-yl)-phenyl]-2,5,6,7-tetrahydro-cyclopenta[d]pyridazin-1-one] yielded a half-maximal inhibitory concentration (IC50) of 100 to 10000 nM.
In turn, `CNc1ccc(C(F)(F)F)c(-n2nc(-c3cc(OC)cc(OC)c3)c3c(c2=O)CCC3)c1` [Example 82, 4-(3,5-dimethoxy-phenyl)-2-(5-methylamino-2-trifluoromethyl-phenyl)-2,5,6,7-tetrahydro-cyclopenta[d]pyridazin-1-one] came in with a half-inhibitory concentration (IC50) below 100 nM.
`COc1cc(OC)cc(-c2nn(-c3cc(C#CCO)ccc3C(F)(F)F)c(=O)c3c2CCC3)c1` [Example 120, 4-(3,5-dimethoxy-phenyl)-2-[5-(3-hydroxy-prop-1-ynyl)-2-trifluoromethyl-phenyl]-2,5,6,7-tetrahydro-cyclopenta[d]pyridazin-1-one] displayed a half-inhibitory concentration (IC50) below 100 nM.
Next, `COC(=O)CCNc1ccc(C(F)(F)F)c(-n2nc(-c3cc(OC)cc(OC)c3)c3c(c2=O)CCC3)c1` [Example 143, 3-{3-[4-(3,5-dimethoxy-phenyl)-1-oxo-1,5,6,7-tetrahydro-cyclopenta[d]pyridazin-2-yl]-4-trifluoromethyl-phenylamino}-propionic acid methyl ester]: below 100 nM.
Compound `COc1cc(OC)cc(-c2nn(-c3cc(NC(C)=O)ccc3C(F)(F)F)c(=O)c3c2CCC3)c1` [Example 159, N-{3-[4-(3,5-dimethoxy-phenyl)-1-oxo-1,5,6,7-tetrahydro-cyclopenta[d]pyridazin-2-yl]-4-trifluoromethyl-phenyl}-acetamide] gave an IC50 below 100 nM.
In turn, `CNC(=O)c1ccc(C(F)(F)F)c(-n2nc(-c3cc(OC)cc(OC)c3)c3c(c2=O)CCC3)c1` [Example 1-11, 3-[4-(3,5-dimethoxy-phenyl)-1-oxo-1,5,6,7-tetrahydro-cyclopenta[d]pyridazin-2-yl]-N-methyl-4-trifluoromethyl-benzamide] returned an IC50 below 100 nM.
Compound `Cc1cc(C)cc(-c2nn(-c3cc(N4CC[C@H](O)C4)ccc3C(F)(F)F)c(=O)c3c2CCC3)c1` [Example 4, 4-(3,5-dimethyl-phenyl)-2-[5-((S)-3-hydroxy-pyrrolidin-1-yl)-2-trifluoromethyl-phenyl]-2,5,6,7-tetrahydro-cyclopenta[d]pyridazin-1-one] showed a half-inhibitory concentration (IC50) below 100 nM.
For `COc1cc(OC)cc(-c2nn(-c3cc(Nc4ccccc4)ccc3C(F)(F)F)c(=O)c3c2CCC3)c1` [Example 134, 4-(3,5-dimethoxy-phenyl)-2-(5-phenylamino-2-trifluoromethyl-phenyl)-2,5,6,7-tetrahydro-cyclopenta[d]pyridazin-1-one] the value was 100 to 10000 nM.
For `COc1cc(OC)cc(-c2nn(-c3cc(NCCC(N)=O)ccc3C(F)(F)F)c(=O)c3c2CCC3)c1` [Example 142, 3-{3-[4-(3,5-dimethoxy-phenyl)-1-oxo-1,5,6,7-tetrahydro-cyclopenta[d]pyridazin-2-yl]-4-trifluoromethyl-phenylamino}-propionamide] the value was below 100 nM; for `COc1cc(OC)cc(-c2nn(-c3cc(-c4cccnn4)ccc3C(F)(F)F)c(=O)c3c2CC(C)N3)c1` (stereo not shown) [Example 19, 4-(3,5-dimethoxy-phenyl)-2-methyl-6-(5-pyridazin-3-yl-2-trifluoromethyl-phenyl)-1,2,3,6-tetrahydro-pyrrolo[2,3-d]pyridazin-7-one], below 100 nM.
